Measurements: PMC9653470 (2022)
“Also recorded” adds a separate entry of the source.

Assay: fresh human plasma
Conditions: 37 °C, up to 24 hours

fragment found: a, major; also recorded: b, major
Substance: H2N-USPGYS-NH2
